# Reference: US6365628B1 (Thia Medica AS, priority 1998, dated 2002)
# Legend:
# [1] = system: chinese hamster ovary cells; assay: Chromosomal aberrations in cultured chinese hamster ovary cells; type: cell-based; conditions: doses tested 12-140 mg/ml
# [2] = system: male Wistar rats; assay: Hepatic levels of triacylglycerol in rats fed fatty acid analogues (Example 17); type: in vivo, rat; conditions: TTA 150 mg/kg/day for 6 days, no prefeeding
# Text: Even an increased hepatic level of triacylglycerol may be relieved by TTA. Feeding rats with an inhibitor of fatty acid oxidation will increase the level of hepatic triacylglycerol resulting in fatty liver. Tetradecyl-4-thia propionic acid (TTP) is a fatty acid analogue with a sulphur atom in the 4 position. This analogue inhibits the β-oxidation of fatty acids due to the formation of a mitochondrial inhibitor. Feeding rats with this analogue results in the formation of fatty. However, if the rats are fed with a combination of TTA and TTP, the formation of fatty liver is avoided (Table 8). This provides evidence that TTA may be used for the treatment of conditions with an increased hepatic level of triacylglycerol. Male Wistar rats had free access to water and rat maintenance chow. They were fed palmitic acid or fatty acid analogues suspended in 0.5% CMC for 6 days. In some experiments TTA or TTP were fed for 3 days before feeding both for 6 days. At the end of the experiment the rats were fasted overnight, killed, the liver removed and homogenized. Triacylglycerol was measured in the homogenate.
# [3] = system: obese Zucker (fa/fa) rats; assay: Liver mitochondrial fatty acid oxidation, CPT-I and CPT-II after TTA feeding (Example 16); type: in vivo, rat; conditions: chow with 0.15% TTA
# Protocol: Freshly isolated livers from individual old Zucker rats, were homogenised in ice-cold sucrose buffer (0.25 M sucrose, 10 mM HEPES (pH 7.4) and 2 mM EDTA). Post-nuclear and mitochondrial fractions were prepared using preparative differential centrifugation according to DeDuve et al. (De Duve, C., et al., Biochem. J., 60, 604-617 1955.) Modifications, purity and yield were as described earlier (Garras, A., et al., Biochim. Biophys. Acta, 1255, 154-160 1995.). Acid soluble products were measured in post-nuclear and mitochondrial enriched fractions, using [1-^14C]-palmitoyl-CoA and [1-^14C]-palmitoyl-L-carnitine (Radiochemical Centre, Amersham, England) as substrates as described earlier (Willumsen, N., et al., J. Lipid Res., 34, 13-22 1993. Carnitine palmitoyltransferase-I and -II activities were measured in the post-nuclear and mitochondrial fractions essentially as described by Bremer (Bremer, J., Biochim. Biophys. Acta, 665, 628-631 1981.) and 3-hydroxy-3-methylglutharyl-CoA synthase was measured according to Clinkenbeard et al. (Clinkenbeard, K. D., et al., J. Biol. Chem, 250, 3108-3116 1975.) in the mitochondrial fractions.
# RNA extraction (Chomczynski, P., et al., Anal. Biochem., 162, 156-159 1987.), Northern blot analysis and slot blotting of RNA onto nylon filters, and hybridisation to immobilised RNA were performed as earlier described (Vaagenes, H., et al., Biochem. Pharmacol., 56, 1571-1582 1998.). […]
# Obese Zucker (fa/fa) rats were given a standard chow either with (n=6) or without (n=5) 0.15% TTA. […] Fatty acid oxidation rates were measured using [1-^14C]-palmitoyl CoA or [1-^14C]-palmitoyl-L-carnitine as substrates (A) CPT-I (B) and CPT-II (C) were measured in the mitochondrial factions. […] The relative mRNA levels were determined by densiometric scanning of the autoradiograms and the different mRNA levels were normalised to the respective 28S rRNA and the means for the controls were set to 1. […] Values are expressed as the mean±S.D.
# [4] = system: 4 month old obese Zucker (fa/fa) rats; assay: Blood insulin and glucose in 4 month old obese Zucker (fa/fa) rats (Example 13); type: in vivo, rat; conditions: 4 month old Zucker (fa/fa) rats, chow with 0.15% TTA, 21 days (FIG. 6)
# Protocol: Glucose (GLU, Boehringer Mannheim, Germany), free fatty acids (NEFA, C ACS-ACOD kit; Wako Chemicals, Dalton, USA) and b-hydroxybutyrate (310-A kit; Sigma Diagnostics Inc., St. Louis, USA) concentrations were measured using enzymatic methods. Insulin concentrations were determined with radioimmunoassay by (CIS bio International, Gif sur Yvette, France) using rat insulin as standard in the Zucker rats. In the Wistar Charles River rats, plasma glucose concentrations were measured with the aid of Beckman Glucose Analyzer (Fullerton, Calif., USA). Plasma insulin levels were measured using a RIA kit from Linco Research Inc. (St. Charles, Mo., USA). Phospholipids were measured by the enzymatic method of bioMérieux, Marcy-l {grave over ( )}Etoile, France, Triacylglycerol by the Technicon Method no. SA4-0324L90, USA and Cholesterol by the Technicon Method no. SA4-0305L90, USA.
# The rats were given a standard chow diet, either with (n=5) or without (n=6) 0.15% TTA. Following 21 days of treatment, blood was collected and the levels of insulin and glucose measured. Data are means±S.D.
substance,measurement,setting,value
Tetradecylthioacetic acid [TTA],Chromosomal aberrations in cultured chinese hamster ovary cells,[1],no aberrations were induced
same,Hepatic triacylglycerol TG (μmol/g),[2],"7,7 ± 2,9 μmol/g"
same,Activity and mRNA levels of CPT-I,[3]; 21 days (FIG. 8B),increase
same,Activity and mRNA levels of CPT-II,[3]; 21 days (FIG. 8C),increase
same,Increase of liver fatty acid oxidation,"[3]; 21 days, palmitoyl-CoA and palmitoyl-L-carnitine as substrates (FIG. 8A)",more than 7 fold
same,Blood glucose concentration,[4],reduces
same,Blood insulin concentration,[4],reduces
